Assay results taken from US6514945B1, “Azalide antibiotic compositions” (Pfizer Inc., priority 2000, dated 2003).

Experiment: Equilibration of azalide isomers I and II in heated aqueous acid, monitored by HPLC (Table 1)
Type: physicochemical
Settings: isomer I prior to equilibration, for comparison
Method: The equilibrium ratio of isomers I and II (about 90%±4% to about 10%±4%, respectively) was consistent for all experiments. […] Without being bound by any theory, lower equilibration temperatures or lower pH values generally result in substantially longer equilibration times. Equilibration time can also depend on, inter alia, the concentration of starting material, and the type and concentration of the acid used. Isomer I at a concentration of up to about 300 mg per mL of composition was heated to a temperature of about 40° C. to about 80° C. in the presence of one or more acids at a concentration of about 0.2 mmol to about 1.0 mmol per mL of mixture and with a sufficient quantity of hydrochloric acid to achieve a pH of about 6.5 to about 7.5 for up to about 20 hours to produce an equilibrium mixture of isomers that is about […] pure. Equilibration kinetic parameters and impurity levels for equilibration of azalide isomers I and II were determined as a function of pH, equilibration temperature, type of acid, and isomer I concentration and are listed in Table 1. […]
Equilibrium mixtures of isomers were prepared and assayed as follows. […] 100 mL of solution were prepared in each of experiments 25C-28C, 200 mL of solution were prepared in each of experiments 29C-30C, and equilibration was monitored from 0.5 mL aliquots removed from the solutions. […]

% Equilibrium mixture of isomers: 98.39%
% Impurities: 1.61%
Compound: CCCNC[C@]1(O)[C@H](C)O[C@@H](O[C@H]2[C@H](C)[C@@H](OC3O[C@H](C)C[C@H](N(C)C)[C@H]3O)C(C)(O)C[C@@H](C)CN[C@H](C)[C@@H](O)[C@](C)(O)[C@@H](CC)OC(=O)[C@@H]2C)C[C@@]1(C)OC (single isomer, unassigned) [isomer I]
